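Following 48 hours of exposure in 96-well plates, responses at five concentrations were used to interpolate endpoints linearly. Abbreviation: GI50, concentration required for 50% inhibition of growth. TGI: concentration producing complete growth inhibition.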
Assays:
Assay in all cases: NCI tumour cell line growth inhibition, 48 h
[1] = test system: 786-0 renal
[2] = test system: A498 renal
[3] = test system: A549 NSCLC
[4] = test system: ACHN renal
[5] = test system: CAKI-1 renal
[6] = test system: CCRF-CEM leukemia
[7] = test system: COLO 205 colon
[8] = test system: DLD-1 colon
[9] = test system: DMS 114 small cell lung
[10] = test system: DMS 273 small cell lung
[11] = test system: EKVX NSCLC
[12] = test system: HCC-2998 colon
[13] = test system: HCT-15 colon
[14] = test system: HL-60(TB) leukemia
[15] = test system: HOP-18 NSCLC
[16] = test system: HOP-62 NSCLC
[17] = test system: HOP-92 NSCLC
[18] = test system: HT29 colon
[19] = test system: IGROV1 ovarian
[20] = test system: K-562 leukemia
[21] = test system: KM12 colon
[22] = test system: KM20L2 colon
[23] = test system: LOX IMVI melanoma
[24] = test system: LXFL 529 NSCLC
[25] = test system: M14 melanoma
[26] = test system: M19-MEL melanoma
[27] = test system: MALME-3M melanoma
[28] = test system: MOLT-4 leukemia
[29] = test system: NCI-H226 lung
[30] = test system: NCI-H23 lung
[31] = test system: NCI-H460 lung
[32] = test system: NCI-H522 lung
[33] = test system: OVCAR-3 ovarian
[34] = test system: OVCAR-4 ovarian
[35] = test system: OVCAR-5 ovarian
[36] = test system: OVCAR-8 ovarian
[37] = test system: RPMI-8226 leukemia
[38] = test system: RXF 393 renal
[39] = test system: SF-268 CNS
[40] = test system: SF-295 CNS
[41] = test system: SF-539 CNS
[42] = test system: SK-MEL-2 melanoma
[43] = test system: SK-MEL-28 melanoma
[44] = test system: SK-MEL-5 melanoma
[45] = test system: SK-OV-3 ovarian
[46] = test system: SN12C renal
[47] = test system: SNB-19 CNS
[48] = test system: SNB-75 CNS
[49] = test system: SNB-78 CNS
[50] = test system: SR leukemia
[51] = test system: SW-620 colon
[52] = test system: U251 CNS
[53] = test system: UACC-257 melanoma
[54] = test system: UACC-62 melanoma
[55] = test system: UO-31 renal
[56] = test system: BT-549 breast
[57] = test system: DU-145 prostate
[58] = test system: HCT-116 colon
[59] = test system: HS 578T breast
[60] = test system: MCF7 breast
[61] = test system: MDA-MB-231 breast
[62] = test system: MDA-MB-435
[63] = test system: MDA-N
[64] = test system: NCI/ADR-RES ovarian
[65] = test system: PC-3 prostate
[66] = test system: T-47D breast
[67] = test system: TK-10 renal

Compound: [O-][Cl+3]([O-])([O-])[O-].[O]=[Ru]=[O].c1ccc(-c2ccccn2)nc1.c1ccc(-c2ccccn2)nc1
- GI50 [1]: > 100 µM
- TGI [1]: > 100 µM
- GI50 [2]: > 100 µM
- TGI [2]: > 100 µM
- GI50 [3]: > 100 µM
- TGI [3]: > 100 µM
- GI50 [4]: > 100 µM
- TGI [4]: > 100 µM
- GI50 [5]: > 100 µM
- TGI [5]: > 100 µM
- GI50 [6]: > 100 µM
- TGI [6]: > 100 µM
- GI50 [7]: > 100 µM
- TGI [7]: > 100 µM
- GI50 [8]: > 100 µM
- TGI [8]: > 100 µM
- GI50 [9]: 21.9 µM
- TGI [9]: 61.2 µM
- GI50 [10]: 22.4 µM
- TGI [10]: > 100 µM
- GI50 [11]: > 100 µM
- TGI [11]: > 100 µM
- GI50 [12]: 88.6 µM
- TGI [12]: > 100 µM
- GI50 [13]: > 100 µM
- TGI [13]: > 100 µM
- GI50 [14]: > 100 µM
- TGI [14]: > 100 µM
- GI50 [15]: > 100 µM
- TGI [15]: > 100 µM
- GI50 [16]: > 100 µM
- TGI [16]: > 100 µM
- GI50 [17]: > 100 µM
- TGI [17]: > 100 µM
- GI50 [18]: > 100 µM
- TGI [18]: > 100 µM
- GI50 [19]: 58.8 µM
- TGI [19]: > 100 µM
- GI50 [20]: > 100 µM
- TGI [20]: > 100 µM
- GI50 [21]: > 100 µM
- TGI [21]: > 100 µM
- GI50 [22]: > 100 µM
- TGI [22]: > 100 µM
- GI50 [23]: 56.8 µM
- TGI [23]: > 100 µM
- GI50 [24]: 41.3 µM
- TGI [24]: > 100 µM
- GI50 [25]: > 100 µM
- TGI [25]: > 100 µM
- GI50 [26]: > 100 µM
- TGI [26]: > 100 µM
- GI50 [27]: > 100 µM
- TGI [27]: > 100 µM
- GI50 [28]: > 100 µM
- TGI [28]: > 100 µM
- GI50 [29]: 56.7 µM
- TGI [29]: > 100 µM
- GI50 [30]: > 100 µM
- TGI [30]: > 100 µM
- GI50 [31]: 56.1 µM
- TGI [31]: > 100 µM
- GI50 [32]: > 100 µM
- TGI [32]: > 100 µM
- GI50 [33]: > 100 µM
- TGI [33]: > 100 µM
- GI50 [34]: > 100 µM
- TGI [34]: > 100 µM
- GI50 [35]: > 100 µM
- TGI [35]: > 100 µM
- GI50 [36]: > 100 µM
- TGI [36]: > 100 µM
- GI50 [37]: 29.7 µM
- TGI [37]: > 100 µM
- GI50 [38]: 39.1 µM
- TGI [38]: > 100 µM
- GI50 [39]: 65.7 µM
- TGI [39]: > 100 µM
- GI50 [40]: 60.2 µM
- TGI [40]: > 100 µM
- GI50 [41]: > 100 µM
- TGI [41]: > 100 µM
- GI50 [42]: > 100 µM
- TGI [42]: > 100 µM
- GI50 [43]: 92.1 µM
- TGI [43]: > 100 µM
- GI50 [44]: 82.5 µM
- TGI [44]: > 100 µM
- GI50 [45]: > 100 µM
- TGI [45]: > 100 µM
- GI50 [46]: 50.9 µM
- TGI [46]: > 100 µM
- GI50 [47]: 65.2 µM
- TGI [47]: > 100 µM
- GI50 [48]: 40.9 µM
- TGI [48]: > 100 µM
- GI50 [49]: > 100 µM
- TGI [49]: > 100 µM
- GI50 [50]: 4.07 µM
- TGI [50]: 34.7 µM
- GI50 [51]: > 100 µM
- TGI [51]: > 100 µM
- GI50 [52]: > 100 µM
- TGI [52]: > 100 µM
- GI50 [53]: > 100 µM
- TGI [53]: > 100 µM
- GI50 [54]: > 100 µM
- TGI [54]: > 100 µM
- GI50 [55]: > 100 µM
- TGI [55]: > 100 µM

Compound: O=C(O)C1C2c3ccccc3C(c3ccccc32)C1C(=O)NCC1CC1 (stereo not drawn)
- TGI [1]: > 100 µM
- TGI [2]: > 100 µM
- TGI [3]: > 100 µM
- TGI [4]: > 100 µM
- TGI [56]: > 100 µM
- TGI [5]: > 100 µM
- TGI [6]: 96.8 µM
- TGI [7]: > 100 µM
- TGI [57]: > 100 µM
- TGI [11]: > 100 µM
- TGI [12]: 55.1 µM
- TGI [58]: > 100 µM
- TGI [13]: > 100 µM
- TGI [14]: 77.2 µM
- TGI [16]: > 100 µM
- TGI [17]: > 100 µM
- TGI [59]: > 100 µM
- TGI [18]: > 100 µM
- TGI [19]: > 100 µM
- TGI [20]: > 100 µM
- TGI [21]: > 100 µM
- TGI [23]: > 100 µM
- TGI [25]: > 100 µM
- TGI [27]: > 100 µM
- TGI [60]: > 100 µM
- TGI [61]: > 100 µM
- TGI [62]: > 100 µM
- TGI [63]: > 100 µM
- TGI [28]: > 100 µM
- TGI [29]: > 100 µM
- TGI [30]: > 100 µM
- TGI [31]: > 100 µM
- TGI [32]: 86.9 µM
- TGI [64]: > 100 µM
- TGI [33]: > 100 µM
- TGI [34]: > 100 µM
- TGI [35]: > 100 µM
- TGI [36]: > 100 µM
- TGI [65]: > 100 µM
- TGI [37]: 85.3 µM
- TGI [38]: > 100 µM
- TGI [39]: > 100 µM
- TGI [40]: > 100 µM
- TGI [41]: > 100 µM
- TGI [42]: > 100 µM
- TGI [43]: > 100 µM
- TGI [44]: > 100 µM
- TGI [45]: > 100 µM
- TGI [46]: > 100 µM
- TGI [47]: > 100 µM
- TGI [48]: > 100 µM
- TGI [50]: > 100 µM
- TGI [51]: > 100 µM
- TGI [66]: > 100 µM
- TGI [67]: > 100 µM
- TGI [52]: > 100 µM
- TGI [53]: 70.5 µM
- TGI [54]: > 100 µM
- TGI [55]: > 100 µM

Compound: N#Cc1cccc(-n2[nH]c(=O)ccc2=O)c1
- TGI [1]: > 100 µM
- TGI [3]: > 100 µM
- TGI [4]: > 100 µM
- TGI [5]: > 100 µM
- TGI [6]: > 100 µM
- TGI [7]: > 100 µM
- TGI [8]: > 100 µM
- TGI [9]: > 100 µM
- TGI [10]: > 100 µM
- TGI [12]: > 100 µM
- TGI [58]: > 100 µM
- TGI [13]: > 100 µM
- TGI [14]: > 100 µM
- TGI [16]: > 100 µM
- TGI [17]: > 100 µM
- TGI [18]: > 100 µM
- TGI [19]: > 100 µM
- TGI [20]: > 100 µM
- TGI [21]: > 100 µM
- TGI [22]: > 100 µM
- TGI [24]: > 100 µM
- TGI [25]: > 100 µM
- TGI [26]: > 100 µM
- TGI [27]: > 100 µM
- TGI [28]: > 100 µM
- TGI [29]: > 100 µM
- TGI [30]: > 100 µM
- TGI [31]: > 100 µM
- TGI [32]: > 100 µM
- TGI [33]: > 100 µM
- TGI [34]: > 100 µM
- TGI [35]: > 100 µM
- TGI [36]: > 100 µM
- TGI [37]: > 100 µM
- TGI [39]: > 100 µM
- TGI [40]: > 100 µM
- TGI [41]: > 100 µM
- TGI [42]: > 100 µM
- TGI [43]: > 100 µM
- TGI [44]: > 100 µM
- TGI [47]: > 100 µM
- TGI [48]: > 100 µM
- TGI [50]: > 100 µM
- TGI [51]: > 100 µM
- TGI [67]: > 100 µM
- TGI [52]: > 100 µM
- TGI [53]: > 100 µM
- TGI [54]: > 100 µM
- TGI [55]: > 100 µM

— PubChem BioAssay (NCI)
